Earlier results as cited in US20160136093A9, “ENGINEERED AEROSOL PARTICLES, AND ASSOCIATED METHODS” (priority 2009, published 2016).

System: non-replicating TB
Details: after one month, in vitro

Question: For Capreomycin, which “decrease in colony forming units (CFU)” value is on record?
Answer: one to two
